# Read-outs that look alike come from different tables or passages of the source.
# Test system: A549 cells
# Settings: for b-catenin/ tubulin normalized / N-Cadherin/GAPDH normalized / Smad2/3/GAPDH normalized / p- Smad2/3/GAPDH normalized / b-catenin/ HDAC2 normalized / b-catenin/ Histone 3 normalized: TGF-β=1; for P65/GAPDH normalized / p-P65/GAPDH normalized: TGF-β+TNF-a=1; for E-Cadherin/GAPDH normalized: DMSO=1
# [1] = 0.3 μM, TGF-β+TNF-a group, Batch 1
# [2] = 0.3 μM, TGF-β+TNF-a group, Batch 2
# [3] = 0.3 μM, TGF-β+TNF-a group, Batch 3
# [4] = 1 μM, TGF-β+TNF-a group, Batch 1
# [5] = 1 μM, TGF-β+TNF-a group, Batch 2
# [6] = 1 μM, TGF-β+TNF-a group, Batch 3
# [7] = 3 μM, TGF-β+TNF-a group, Batch 1
# [8] = 3 μM, TGF-β+TNF-a group, Batch 2
# [9] = 3 μM, TGF-β+TNF-a group, Batch 3
smiles,measurement,setting,value
"CC(C)n1cnc(-c2ccc(F)cc2)c1-c1nc(C(=O)Nc2ccc(N3CCN(C)CC3)cc2)c[nH]1 [INS018_055, 2-[4-(4-fluorophenyl)-1-(prop-2-yl)imidazol-5-yl]-N-[4-(4-methylhexahydropyrazin-1-yl)phenyl]-1H-imidazole-4-carboxamide]",b-catenin/ tubulin normalized,"0.3 μM, Batch 4",1.498
same,P65/GAPDH normalized,"0.3 μM, TGF-β group, Batch 1",0.4013
same,p-P65/GAPDH normalized,"0.3 μM, TGF-β group, Batch 1",0.07454
same,P65/GAPDH normalized,"0.3 μM, TGF-β group, Batch 2",0.8627
same,p-P65/GAPDH normalized,"0.3 μM, TGF-β group, Batch 2",0.05473
same,P65/GAPDH normalized,"0.3 μM, TGF-β group, Batch 3",0.4505
same,p-P65/GAPDH normalized,"0.3 μM, TGF-β group, Batch 3",0.04515
same,P65/GAPDH normalized,[1],0.6352
same,p-P65/GAPDH normalized,[1],0.6859
same,P65/GAPDH normalized,[2],0.8628
same,p-P65/GAPDH normalized,[2],0.7296
same,P65/GAPDH normalized,[3],0.342
same,p-P65/GAPDH normalized,[3],0.3802
same,E-Cadherin/GAPDH normalized,"1 μM, Batch 1",1.5017
same,N-Cadherin/GAPDH normalized,"1 μM, Batch 1",0.1538
same,Smad2/3/GAPDH normalized,"1 μM, Batch 1",1.22
same,p- Smad2/3/GAPDH normalized,"1 μM, Batch 1",0.02816
same,E-Cadherin/GAPDH normalized,"1 μM, Batch 2",1.0948
same,N-Cadherin/GAPDH normalized,"1 μM, Batch 2",0.1737
same,Smad2/3/GAPDH normalized,"1 μM, Batch 2",1.233
same,b-catenin/ HDAC2 normalized,"1 μM, Batch 2",0.9055
same,b-catenin/ Histone 3 normalized,"1 μM, Batch 2",0.7183
same,b-catenin/ tubulin normalized,"1 μM, Batch 2",0.408
same,p- Smad2/3/GAPDH normalized,"1 μM, Batch 2",0.1116
same,E-Cadherin/GAPDH normalized,"1 μM, Batch 3",1.05
same,N-Cadherin/GAPDH normalized,"1 μM, Batch 3",0.09916
same,Smad2/3/GAPDH normalized,"1 μM, Batch 3",1.054
same,b-catenin/ HDAC2 normalized,"1 μM, Batch 3",0.9651
same,b-catenin/ Histone 3 normalized,"1 μM, Batch 3",0.7434
same,b-catenin/ tubulin normalized,"1 μM, Batch 3",0.8806
same,p- Smad2/3/GAPDH normalized,"1 μM, Batch 3",0.1186
same,b-catenin/ HDAC2 normalized,"1 μM, Batch 4",1.855
same,b-catenin/ Histone 3 normalized,"1 μM, Batch 4",0.679
same,b-catenin/ tubulin normalized,"1 μM, Batch 4",1.374
same,P65/GAPDH normalized,"1 μM, TGF-β group, Batch 1",0.3482
same,p-P65/GAPDH normalized,"1 μM, TGF-β group, Batch 1",0.05447
same,P65/GAPDH normalized,"1 μM, TGF-β group, Batch 2",0.9166
same,p-P65/GAPDH normalized,"1 μM, TGF-β group, Batch 2",0.06504
same,P65/GAPDH normalized,"1 μM, TGF-β group, Batch 3",0.4988
same,p-P65/GAPDH normalized,"1 μM, TGF-β group, Batch 3",0.05557
same,P65/GAPDH normalized,[4],0.397
same,p-P65/GAPDH normalized,[4],0.497
same,P65/GAPDH normalized,[5],0.7304
same,p-P65/GAPDH normalized,[5],0.6585
same,P65/GAPDH normalized,[6],0.3751
same,p-P65/GAPDH normalized,[6],0.3266
same,E-Cadherin/GAPDH normalized,"3 μM, Batch 1",1.832
same,N-Cadherin/GAPDH normalized,"3 μM, Batch 1",0.1802
same,Smad2/3/GAPDH normalized,"3 μM, Batch 1",1.447
same,p- Smad2/3/GAPDH normalized,"3 μM, Batch 1",0.01636
same,E-Cadherin/GAPDH normalized,"3 μM, Batch 2",1.252
same,N-Cadherin/GAPDH normalized,"3 μM, Batch 2",0.1613
same,Smad2/3/GAPDH normalized,"3 μM, Batch 2",1.278
same,b-catenin/ HDAC2 normalized,"3 μM, Batch 2",1.403
same,b-catenin/ Histone 3 normalized,"3 μM, Batch 2",0.21
same,b-catenin/ tubulin normalized,"3 μM, Batch 2",0.2321
same,p- Smad2/3/GAPDH normalized,"3 μM, Batch 2",0.09113
same,E-Cadherin/GAPDH normalized,"3 μM, Batch 3",1.09
same,N-Cadherin/GAPDH normalized,"3 μM, Batch 3",0.0841
same,Smad2/3/GAPDH normalized,"3 μM, Batch 3",1.0906
same,b-catenin/ HDAC2 normalized,"3 μM, Batch 3",0.958
same,b-catenin/ Histone 3 normalized,"3 μM, Batch 3",0.258
same,b-catenin/ tubulin normalized,"3 μM, Batch 3",1.067
same,p- Smad2/3/GAPDH normalized,"3 μM, Batch 3",0.09865
same,b-catenin/ HDAC2 normalized,"3 μM, Batch 4",2.079
same,b-catenin/ Histone 3 normalized,"3 μM, Batch 4",0.1136
same,b-catenin/ tubulin normalized,"3 μM, Batch 4",1.238
same,P65/GAPDH normalized,"3 μM, TGF-β group, Batch 1",0.5411
same,p-P65/GAPDH normalized,"3 μM, TGF-β group, Batch 1",0.07665
same,P65/GAPDH normalized,"3 μM, TGF-β group, Batch 2",0.9083
same,p-P65/GAPDH normalized,"3 μM, TGF-β group, Batch 2",0.116
same,P65/GAPDH normalized,"3 μM, TGF-β group, Batch 3",0.5638
same,p-P65/GAPDH normalized,"3 μM, TGF-β group, Batch 3",0.08352
same,P65/GAPDH normalized,[7],0.3919
same,p-P65/GAPDH normalized,[7],0.3522
same,P65/GAPDH normalized,[8],0.5755
same,p-P65/GAPDH normalized,[8],0.6038
same,P65/GAPDH normalized,[9],0.3478
same,p-P65/GAPDH normalized,[9],0.3112
